Results from a melting point compilation (Tetko et al.; mined from patent text by program, amines drawn as free bases though some values may be those of a salt).

SMILES | melting point
COC1=C(OC)C(O)C(CC=C(C)CCC=C(C)CCC=C(C)C)C(C)C1=O (stereo unspecified) | 48 to 52 °C
Cn1c([N+](=O)[O-])cnc1C1=NO[C@H]2CCCCC[C@@H]12 (relative stereo) | 93 to 95 °C
CCn1cc2c(n1)c(N)nc1cc(O)ccc12 | 214 to 215 °C
Cn1c(-c2ccncc2)n[nH]c1=O | 249 to 251 °C
CSCC1CCN(c2cn(-c3cccnc3)nc2Cl)C1=O (stereo unspecified) | 83 to 84 °C
COc1cc2c(Cl)c(C(=O)Cl)sc2cc1OCc1ccccc1 | 144 to 152 °C
O=C(NCCCn1ccnc1)C(c1ccccc1)c1ccccc1 | 136 to 138 °C
Cc1cccc(C2COc3cc(O)ccc3C2c2ccc(OCCN3CCCC3)cc2)c1 (stereo unspecified) | 85 to 90 °C
Cn1nc(-c2cnc3[nH]cc(C(=O)NCC4CC4)c3n2)c2ccc(F)cc21 | 319 to 322 °C
CC(=O)N(C1=C(NC2CC2)C(=O)c2c(cnn2C)C1=O)C1CC1 | 75 to 78 °C
CCOC(=O)[C@H](CCc1ccccc1)NC(=O)C(C)(C)NC(=O)[C@@H](S)C1CCOCC1 | 157 to 158 °C
CCCn1c(=O)c(C#N)c(N2CCN(C(=O)c3cccs3)CC2)c2cccnc21 | 196 °C
O=C1CC(c2cccc(-c3ocnc3C(=O)NCCO)c2)=Nc2ccc(-n3cccc3)cc2N1 | 228 to 230 °C
CC(=O)NC[C@H]1CN(c2ccc(C3=CCSCC3)c(F)c2)C(=O)O1 | 119 to 122 °C
Cc1c(F)cc(C(=N)N)c(Oc2ncccc2Oc2cccnc2)c1F | 213 to 214 °C
CCOC(=O)N(c1ccccc1[N+](=O)[O-])c1cccc(C)c1C | 71 to 73 °C
C=COc1nc2c(c3ccccc13)c1cc(Cl)ccc1n2C | 121 to 124 °C
COc1cc(N2CCN(Cc3ccc(CNC(C)=O)cc3)CC2)nc(OC)n1 | 89 to 90 °C
CC(C)N[C@H](C(=O)NCCCC(c1ccc(F)cc1)c1ccc(F)cc1)C(C)C | 72 to 80 °C
O=C(CNC(=O)c1cc([N+](=O)[O-])ccc1Cl)OCc1ccccc1 | 116 to 118 °C
CCNC1CN(c2ccc(CCO[Si](c3ccccc3)(c3ccccc3)C(C)(C)C)cc2)S(=O)(=O)c2sc(S(N)(=O)=O)cc21 (stereo unspecified) | 66 °C
CCOC(=O)C(=NO)c1ccc(OC)cc1 | 81 to 82 °C
O=C(NO)c1ccc(OCCNS(=O)(=O)c2ccc(C(=O)Nc3ccc(Cl)c(-c4ccccn4)c3)c(Cl)c2)cc1 | 138 to 139 °C
Cc1cccc(NC(=O)NCC2(c3ccccc3)CCCCC2)c1 | 145 to 147 °C
CCCn1nc2c(N)nc3ccccc3c2c1NCCC1CCN(S(C)(=O)=O)CC1 | 204 to 207 °C
CC(=NO)c1nn(C)c2cc(OCC3CC3(Cl)Cl)c(F)cc12 (stereo unspecified) | 150 to 152 °C

SMILES | melting point
Cc1noc(C)c1S(=O)(=O)Nc1cc(-c2ncc(C(F)(F)F)cc2Cl)ccc1Cl | 161 to 162 °C
CCOC(=O)c1cn(-c2nnn[nH]2)c2cc(F)c(F)cc2c1=O | 233 to 236 °C
CN(C)CCN(C)C(=O)Cn1nc(-c2ccccc2O)nc1-c1ccccc1O | 172 to 174 °C
O=C(NCc1ccccc1)Nc1nnc(-c2ccc(CN3CCCCCC3)s2)s1 | 232 to 233 °C
COC(=O)[C@](C)(Cc1ccc(N(C(=O)OC(C)(C)C)C(=O)C2CCNCC2)cc1)n1nnnc1C1CCCN1S(=O)(=O)c1ccc(C)cc1 (stereo partly specified) | 92 to 102 °C
Clc1ncc(OCc2ccsc2)cn1 | 73 to 76 °C
O=C1SC(Cc2ccc(OCCn3ccc4ccccc43)cc2)C(=O)N1C(c1ccccc1)(c1ccccc1)c1ccccc1 (stereo unspecified) | 63.5 to 65.9 °C
COc1cc2c3nn(-c4ccc(Cl)cc4)c(=O)c-3c[nH]c2c(OC)n1 | 318 to 321 °C
COc1cccc(COc2ccc3c(c2)C=C(C(=O)O)CCS3(=O)=O)c1 | 220 to 222 °C
O=C(NCCN(Cc1ccccc1)Cc1ccccc1)C1CCN(c2c(Cl)cncc2Cl)CC1 | 147 to 149 °C
COC(=O)c1ccc(OC)c(C=O)c1O | 123 to 124 °C
Cc1ccc2c(c1)NC(=O)c1cc(C)sc1O2 | 175 to 179 °C
CCC(C)CNc1nc2ccc(Sc3nnc4n3N=C(c3ccc(F)cc3)CC4)cc2s1 (stereo unspecified) | 220 °C
Clc1ccc(-c2cc3ccccc3nc2Cl)c(Cl)c1 | 120 to 122 °C
CCOc1cc(OCC)nc(-c2ccc(C=O)cc2)n1 | 87 to 88 °C
CC(C)C[C@@H](C(=O)O)n1sc2ccc(F)cc2c1=O | 161 to 162 °C
CSc1nc2c(Cl)cc(Cl)c([N+](=O)[O-])c2s1 | 130 to 132 °C
Cc1cc(=O)[nH]c(=S)n1C1CCCCC1 | 240 to 243 °C
CCON=C(C)c1ccc2c(c1)ncn2-c1cccc(-c2cccnc2)c1 | 105 to 106 °C
Cc1c(NC(=O)c2ccc(-c3ccc4c(c3)CCCO4)cc2)ccc2cc(CN3CCCC3)cnc12 | 195 to 197 °C
COc1ccc(/C=C/c2ccc3c(=O)[nH]ncc3c2)cc1 | 280 to 289 °C
CC[C@H](C)C(OCc1ccccc1)[C@H]1[C@H]([N+](=O)[O-])[C@@H](c2cccs2)N[C@@H]1C(=O)NCCC(=O)O (stereo partly specified) | 79 to 80 °C
Cc1c(C)c2c(c(C)c1NC=O)CC(C)(CO)O2 (stereo unspecified) | 149 to 150 °C
CCN(CC)CC1CCn2c(nc3ccccc32)S1 (stereo unspecified) | 93 to 94 °C
NC(=NO)c1ncn2c1nc(N1CCOCC1)c1ccccc12 | 212 to 213 °C
